How the values were obtained:
[1] = system: carbon-starved M. tuberculosis H37Rv; test: Non-replicating IC90 determination by luciferase (carbon-starved cells); assay type: cell-based; settings: luciferase; for Against carbon starved non-replicating Mtb IC99 (uM, luciferase) / IC99: None = inhibition did not reach 99%; for IC99 / IC90: Mycobacterium tuberculosis, H37RV; for IC99: 120 h, read-out: Against carbon starved non-replicating Mtb IC99 (uM, luciferase); for IC90: IC90 given in brackets beside IC99, read-out: Against carbon starved non-replicating Mtb IC90 (in brackets, luciferase)
[2] = system: replicating M. tuberculosis H37Rv; test: microbe, parasite or virus in culture; assay type: cell-based; settings: None = inhibition did not reach 90%; for IC90: Mycobacterium tuberculosis, H37RV, read-out: Against Replicating Mtb IC90 (uM, GFP)

CSc1nnc(-c2ccccc2)o1
Against carbon starved non-replicating Mtb IC99 (uM, luciferase) [1]: None | IC90 [2]: > 250 µM

CCSc1nnc(-c2ccccc2)o1
IC99 [1]: 250 µM | IC90 [2]: 200 µM

CCCCCCCCCCCCSc1nnc(-c2ccccc2)o1
IC99 [1]: 62 µM | IC90 [2]: 125 µM

Fc1ccc(CCSc2nnc(-c3ccccc3)o2)cc1
IC99 [1]: 250 µM | IC90 [2]: 250 µM

CCOC(=O)CSc1nnc(-c2ccccc2)o1
IC99 [1]: 250 µM | IC90 [2]: 500 µM

c1ccc(-c2nnc(SCC3CC3)o2)cc1
IC99 [1]: 31 µM | IC90 [2]: 125 µM

O=C(CSc1nnc(-c2ccccc2)o1)c1ccc(Br)cc1
Against carbon starved non-replicating Mtb IC99 (uM, luciferase) [1]: None | IC90 [2]: > 500 µM

Fc1ccc(CSc2nnc(-c3ccc(Cl)cc3)o2)cc1
Against carbon starved non-replicating Mtb IC99 (uM, luciferase) [1]: None | IC90 [2]: > 500 µM

Clc1ccc(-c2nnc(SCCC3OCCCO3)o2)cc1
IC99 [1]: 8 µM | IC90 [2]: 62 µM

Fc1ccc(CSc2nnc(-c3cccnc3)o2)cc1
IC99 [1]: 62 µM | IC90 [2]: > 500 µM

c1cncc(-c2nnc(SCCC3OCCCO3)o2)c1
Against carbon starved non-replicating Mtb IC99 (uM, luciferase) [1]: None | IC90 [2]: > 500 µM

Fc1ccc(CSc2nnc(-c3ccncc3)o2)cc1
Against carbon starved non-replicating Mtb IC99 (uM, luciferase) [1]: None | IC90 [2]: > 500 µM

c1cc(-c2nnc(SCCC3OCCCO3)o2)ccn1
Against carbon starved non-replicating Mtb IC99 (uM, luciferase) [1]: None | IC90 [2]: > 500 µM

Clc1ccc(-c2nnc(SCc3ccccn3)o2)cc1
IC99 [1]: 16 µM | IC90 [2]: 62 µM

COCCSc1nnc(-c2ccc(Cl)cc2)o1
IC99 [1]: 16 µM | IC90 [2]: 50 µM

c1ccc(CSc2nnc(-c3cccnc3)o2)nc1
IC99 [1]: 250 µM | IC90 [2]: > 500 µM

COCCSc1nnc(-c2cccnc2)o1
Against carbon starved non-replicating Mtb IC99 (uM, luciferase) [1]: None | IC90 [2]: > 500 µM

c1ccc(CSc2nnc(-c3ccncc3)o2)nc1
IC99 [1]: 500 µM | IC90 [2]: > 500 µM

COCCSc1nnc(-c2ccncc2)o1
IC99 [1]: 500 µM | IC90 [2]: > 500 µM

CS(=O)(=O)c1nnc(-c2ccccc2)o1
IC99 [1]: 62 µM | IC90 [2]: 250 µM

COCCS(=O)(=O)c1nnc(-c2ccc(Cl)cc2)o1
IC99 [1]: 250 µM | IC90 [2]: > 500 µM

c1ccc(-c2nnc(NCc3ccccn3)o2)cc1
Against carbon starved non-replicating Mtb IC99 (uM, luciferase) [1]: None | IC90 [2]: > 500 µM

c1ccc(-c2nnc(OCc3ccccn3)o2)cc1
Against carbon starved non-replicating Mtb IC99 (uM, luciferase) [1]: None | IC90 [2]: > 500 µM

CS(=O)(=O)c1nnc(-c2ccc(Cl)cc2)o1
IC99 [1]: 8 µM | IC90 [2]: 125 µM

Clc1ccc(-c2nnc(NCc3ccccn3)o2)cc1
IC99 [1]: 125 µM | IC90 [2]: 500 µM

COCCNc1nnc(-c2ccc(Cl)cc2)o1
Against carbon starved non-replicating Mtb IC99 (uM, luciferase) [1]: None | IC90 [2]: > 500 µM

Clc1ccc(-c2nnc(OCc3ccccn3)o2)cc1
IC99 [1]: 250 µM | IC90 [2]: 250 µM

CN1CCCCC1COc1nnc(-c2ccc(Cl)cc2)o1 (stereo not shown)
IC99 [1]: 500 µM | IC90 [2]: > 500 µM

COCCOc1nnc(-c2ccc(Cl)cc2)o1
IC99 [1]: 250 µM | IC90 [2]: > 500 µM

COCCSc1nnc(-c2ccc(C)cc2)o1
IC99 [1]: 31 µM | IC90 [2]: 31 µM

Cc1ccc(-c2nnc(SCc3ccccn3)o2)cc1
IC99 [1]: 16 µM | IC90 [2]: 31 µM

Cc1ccc(-c2nnc([S+]([O-])Cc3cccc[n+]3[O-])o2)cc1 (stereo not shown)
IC99 [1]: 62 µM | IC90 [2]: 125 µM

COCCS(=O)(=O)c1nnc(-c2ccc(C)cc2)o1
IC99 [1]: 8 µM | IC90 [2]: 31 µM

Cc1cccc(CSc2nnc(-c3ccc(Cl)cc3)o2)n1
IC99 [1]: 31 µM | IC90 [2]: 62 µM

COc1ccc(-c2nnc(SCc3ccccn3)o2)cc1
IC99 [1]: 16 µM | IC90 [2]: 62 µM

C#CCSc1nnc(-c2ccc(Cl)cc2)o1
IC99 [1]: 16 µM | IC90 [2]: 31 µM

Oc1ccc(-c2nnc(SCc3ccccn3)o2)cc1
IC99 [1]: 62 µM | IC90 [2]: 125 µM

OCC#CCSc1nnc(-c2ccc(Cl)cc2)o1
IC99 [1]: 8 µM | IC90 [2]: 62 µM

CCOC(=O)COc1ccc(-c2nnc(SCc3ccccn3)o2)cc1
IC99 [1]: 31 µM | Against Replicating Mtb IC90 (uM, GFP) [2]: None

COC(=O)c1ccc(CSc2nnc(-c3ccc(Cl)cc3)o2)nc1
IC99 [1]: 16 µM | Against Replicating Mtb IC90 (uM, GFP) [2]: None

COc1ccccc1-c1nnc(SCc2ccccn2)o1
IC99 [1]: 125 µM | Against Replicating Mtb IC90 (uM, GFP) [2]: None

Oc1cccc(-c2nnc(SCc3ccccn3)o2)c1
IC99 [1]: 62 µM | IC90 [2]: 125 µM

COC(=O)CCCOc1ccc(-c2nnc(SCc3ccccn3)o2)cc1
IC99 [1]: 250 µM | IC90 [2]: 500 µM

CC(C)(C)c1ccc(CSc2nnc(-c3ccc(Cl)cc3)o2)cc1
IC99 [1]: 62 µM | IC90 [2]: 250 µM

COC(=O)c1ccc(C[S+]([O-])c2nnc(-c3ccc(Cl)cc3)o2)nc1 (stereo not shown)
IC99 [1]: 4 µM | IC90 [2]: 125 µM

COC(=O)CCCOc1ccc(CSc2nnc(-c3ccc(F)cc3)o2)nc1
IC99 [1]: 31 µM | IC90 [2]: 125 µM

[N-]=[N+]=NOCCNC(=O)CCCOc1ccc(-c2nnc([S+]([O-])Cc3ccccn3)o2)cc1 (stereo not shown)
IC99 [1]: 62 µM | IC90 [2]: 125 µM

[N-]=[N+]=NCCOCCNC(=O)CCCOc1ccc(CSc2nnc(-c3ccc(F)cc3)o2)nc1
Against carbon starved non-replicating Mtb IC99 (uM, luciferase) [1]: None | IC90 [2]: 125 µM

[N-]=[N+]=NCCOCCNC(=O)c1ccc(C[S+]([O-])c2nnc(-c3ccc(Cl)cc3)o2)nc1 (stereo not shown)
IC99 [1]: 62 µM | IC90 [2]: 250 µM

[N-]=[N+]=NCCOCCNC(=O)CCCOc1ccc(C[S+]([O-])c2nnc(-c3ccc(F)cc3)o2)nc1 (stereo not shown)
IC99 [1]: 31 µM | IC90 [2]: 125 µM

Fc1ccc(-c2nnc(SCCN3CCN(c4ccccc4)CC3)o2)cc1
IC90 [1]: 4 µM | Against carbon starved non-replicating Mtb IC99 (uM, luciferase) [1]: None | IC90 [2]: 250 µM

Fc1ccc(-c2nnc(SCCN3CCC(F)(F)CC3)o2)cc1
IC90 [1]: 1 µM | Against carbon starved non-replicating Mtb IC99 (uM, luciferase) [1]: None | Against Replicating Mtb IC90 (uM, GFP) [2]: None

Fc1ccc(-c2nnc(SCCN3CCCC(F)(F)C3)o2)cc1
IC99 [1]: 250 µM | IC90 [1]: 1 µM | IC90 [2]: 250 µM

[N-]=[N+]=NCCOCCNC(=O)CCCn1cc(C[S+]([O-])c2nnc(-c3ccc(F)cc3)o2)nn1 (stereo not shown)
IC99 [1]: 500 µM | IC90 [1]: 125 µM | IC90 [2]: 500 µM

[N-]=[N+]=NCCCOc1ccc(CSc2nnc(-c3ccc(F)cc3)o2)nc1
IC99 [1]: 16 µM | IC90 [2]: 31 µM

C#CCCCOc1ccc(CSc2nnc(-c3ccc(F)cc3)o2)nc1
IC99 [1]: 16 µM | IC90 [2]: 31 µM

[N-]=[N+]=NCCCOc1ccc(C[S+]([O-])c2nnc(-c3ccc(F)cc3)o2)nc1 (stereo not shown)
IC99 [1]: 4 µM | IC90 [2]: 31 µM

C#CCCCOc1ccc(C[S+]([O-])c2nnc(-c3ccc(F)cc3)o2)nc1 (stereo not shown)
IC99 [1]: 31 µM | IC90 [2]: 31 µM

C#CCOc1ccc(-c2nnc([S+]([O-])Cc3ccccn3)o2)cc1 (stereo not shown)
IC99 [1]: 31 µM | IC90 [2]: 31 µM

C#CCCCOc1cccc(-c2nnc(SCc3ccccn3)o2)c1
IC99 [1]: 16 µM | Against Replicating Mtb IC90 (uM, GFP) [2]: None

COc1cc(-c2nnc(SCc3ccccn3)o2)ccc1F
IC99 [1]: 16 µM | Against Replicating Mtb IC90 (uM, GFP) [2]: None

C#CCCCOc1cc(-c2nnc(SCc3ccccn3)o2)ccc1OC
IC99 [1]: 16 µM | Against Replicating Mtb IC90 (uM, GFP) [2]: None

C#CCCCOc1cc(-c2nnc(SCc3ccccn3)o2)ccc1F
IC99 [1]: 64 µM | IC90 [1]: 4 µM | Against Replicating Mtb IC90 (uM, GFP) [2]: None

OCCn1cc(CSc2nnc(-c3ccc(Cl)cc3)o2)nn1
IC99 [1]: 31 µM | IC90 [2]: 62 µM

COc1ccc(CSc2nnc(-c3ccc(F)cc3)o2)nc1
IC90 [2]: 16 to 31 µM

[O-][S+](Cc1ccccn1)c1nnc(-c2ccc(F)cc2)o1 (stereo not shown)
IC90 [2]: 31 µM

COc1ccc(C[S+]([O-])c2nnc(-c3ccc(F)cc3)o2)nc1 (stereo not shown)
IC90 [2]: 31 µM

c1ccc(-c2nnc(SCCC3OCCCO3)o2)cc1 [drawing 168]
IC99 [1]: 62 µM | IC90 [2]: 125 µM

Fc1ccc(CSc2nnc(-c3ccccc3)o2)cc1 [drawing 172]
Against carbon starved non-replicating Mtb IC99 (uM, luciferase) [1]: None | IC90 [2]: 125 µM

COCCSc1nnc(-c2ccccc2)o1 [drawing 175]
IC99 [1]: 16 µM | IC90 [2]: 125 µM

Reference: patent US10301294B2, “Compounds for the treatment of tuberculosis” (priority 2013, dated 2019)
